Experimental data as given in patent US9926605B2, “Functional genomics screening platform for head and neck cancer” (University of Pittsburgh—of the Commonwealth System of …, priority 2012, dated 2018).

What was measured:
[1] = test system: HNSCC patient tumorgrafts; experiment: Heterotopic HNSCC patient tumorgrafts in NOD/SCID mice; format: in vivo
Protocol: FIG. 12A-B. AZD1480 inhibits HNSCC patient tumorgraft growth in conjunction with reduce pSTAT3 expression. (A) Mice bearing heterotropic HNSCC patient tumorgrafts derived from 2 patients (10 mice per group) were treated with AZD1480 (30 mg/kg) or vehicle control, twice daily by oral gavage. Tumor volumes were measures every other day. Statistical difference was determined at the end of the experiment using the Mann-Whitney two-tailed test. (B) Tumors were harvested at the end of treatment, and whole cell lysates were prepared and subjected to immunoblotting with pSTAT3 (Tyr705) and STAT3 antibody. Beta-tubulin was used to assess protein loading. Densitometry was performed and bar graphs illustrate the cumulative findings from each HNSCC tumorgraph experiment.
In vivo studies have generally relied on xenograft tumors derived from implantation of immortalized HNSCC cell lines into immunocompromised mice. To generate a more clinically relevant platform to assess the antitumor effects of candidate therapies, human tumors were directly inoculated into NOD/SCID mice. To date, implanted tumors from 35 HNSCC patients were obtained according to previously described methods. Twenty-six of these tumors have grown successfully in mice at a median time of 16 weeks (range 6-26 weeks) for a take rate of 74%. […]

WT JAK2 = WT JAK2 (Homo sapiens, UniProt O60674); settings: read-out: enzyme IC50; cited from earlier work
Chain of WT JAK2 (O60674 whole entry): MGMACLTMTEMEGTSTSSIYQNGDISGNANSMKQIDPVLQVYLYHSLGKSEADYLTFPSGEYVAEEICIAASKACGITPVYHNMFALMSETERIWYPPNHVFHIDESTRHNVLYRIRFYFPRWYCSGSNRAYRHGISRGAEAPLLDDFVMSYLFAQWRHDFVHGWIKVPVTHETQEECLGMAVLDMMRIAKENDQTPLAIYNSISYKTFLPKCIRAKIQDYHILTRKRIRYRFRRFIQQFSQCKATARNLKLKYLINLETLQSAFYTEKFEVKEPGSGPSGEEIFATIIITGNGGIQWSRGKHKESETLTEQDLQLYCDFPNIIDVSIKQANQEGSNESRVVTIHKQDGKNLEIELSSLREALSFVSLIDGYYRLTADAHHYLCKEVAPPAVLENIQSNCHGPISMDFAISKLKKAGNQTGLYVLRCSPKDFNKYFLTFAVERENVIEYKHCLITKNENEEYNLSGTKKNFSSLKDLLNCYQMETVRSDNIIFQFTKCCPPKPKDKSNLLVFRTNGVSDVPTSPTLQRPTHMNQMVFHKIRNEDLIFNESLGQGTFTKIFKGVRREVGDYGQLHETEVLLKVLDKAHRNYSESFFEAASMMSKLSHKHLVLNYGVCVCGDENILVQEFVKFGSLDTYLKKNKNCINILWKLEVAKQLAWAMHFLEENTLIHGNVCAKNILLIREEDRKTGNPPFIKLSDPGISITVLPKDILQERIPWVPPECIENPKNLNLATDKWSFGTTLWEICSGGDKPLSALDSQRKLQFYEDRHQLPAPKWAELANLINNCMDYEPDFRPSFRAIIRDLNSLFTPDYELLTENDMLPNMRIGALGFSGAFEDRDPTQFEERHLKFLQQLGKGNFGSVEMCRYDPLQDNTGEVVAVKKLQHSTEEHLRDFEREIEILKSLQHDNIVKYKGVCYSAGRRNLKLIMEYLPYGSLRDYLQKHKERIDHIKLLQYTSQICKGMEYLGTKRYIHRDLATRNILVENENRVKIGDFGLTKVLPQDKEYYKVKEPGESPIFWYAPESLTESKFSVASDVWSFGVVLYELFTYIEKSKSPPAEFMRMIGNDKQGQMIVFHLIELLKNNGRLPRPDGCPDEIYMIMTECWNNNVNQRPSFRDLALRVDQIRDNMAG

[2] = test system: phospho-STAT3 (Tyr705) in UMSCC-1 cells; experiment: pSTAT3 (Tyr705) immunoblotting in HNSCC cell line; format: cell-based, human; settings: increasing concentration, 24 hours, immunoblot
Protocol: FIG. 13. […] UMSCC-1 cells were treated with increasing concentration of AZD1480. After 24 hours, cells were harvested to obtain cell lysates. Forty micrograms of protein/lane were subjected to electrophoresis and immunoblotted for phosphor-STAT3 (Tyr705) and total STAT3. Beta-tubulin was used as a loading control.
(§1) The effect of AZD1480 on STAT3 tyrosine phosphorylation and cell growth was further assessed in a panel of HNSCC cell lines.

[3] = test system: UM-SCC1 cells expressing mutant PTPRD (P1311T); experiment: MTT survival and STAT3 promoter activity in UM-SCC1 cells expressing mutant PTPRD; format: cell-based, human; settings: PTPRD mutant cells compared with controls
Protocol: FIG. 14. […] UM-SCC1 cells expressing mutant PTPRD (P1311T) or vector control were treated with AZD1480 (5 μm) or DMSO (vehicle) followed by MTT assay to determine % survival relative to vehicle control. Results are mean±SEM, performed in triplicate.
as §1

9 HNSC cell lines = experiment: Proliferation of a panel of HNSCC cell lines; format: cell-based; settings: Homo sapiens; range in 9 HNSC cell lines tested; data not shown; read-out: EC50 (inhibition of proliferation)
Text: as §1

[4] = test system: UM-SCC47 cells expressing the HRAS(Q61K) mutant; experiment: Growth inhibition of UM-SCC47 cells expressing HRAS(Q61K); format: cell-based, human; settings: 250 nM, 24 hours; HRAS(Q61K) vs HRAS WT and EGFP vector control cells, n=4
Protocol: (A) HRAS wildtype (WT) and HRAS (Q61K) mutant or an EGFP vector control was introduced into the HPV-HSNCC cell line, UM-SCC47, by retroviral infection.
To test whether increased PI3K signaling can be achieved by mutations in HRAS, a hotspot HRAS mutation found in our HNSCC cohort, HRAS(Q61K), was generated. Experiments were performed to determine the effect this mutation had on PI3K activation and response to PI3K pathway inhibition.

[5] = test system: UMSCC-47 cells expressing PIK3CA (WT) or PIK3CA (E542K) mutant; settings: 0 to 10 μM, 72 h; PIK3CA WT or E542K expressing cells vs vector control
Protocol: Retrovirus-infected UMSCC-47 cells expressing control EGFP gene, PIK3CA (WT) or PIK3CA (E542K) mutant were subjected to BEZ-235 (from 0 to 10 μM) treatment for 72 h followed by growth determinations.
To determine the effects of individual PIK3CA mutations on sensitivity to PI3K pathway inhibitors in HNSCC, we tested the effects of a representative PI3K pathway inhibitor (BEZ-235) in HPV-HNSCC cells engineered to express mutant or WT PIK3CA (E542K) a HNSCC line harboring a PIK3CA mutation.

[6] = test system: PE/CA-PJ49 (PTPRD I1821V) versus PE/CAPJ34 (Clone 12) HNSCC cells; experiment: MTT assay in HNSCC cell lines with endogenous mutant versus WT PTPRD; format: cell-based, human; settings: 24 hours, n=3, mutant PTPRD (I1821V) cells vs WT PTPRD cells
Protocol: To determine if PTPR mutation enhances sensitivity to STAT3 pathway inhibitors, HNSCC cell lines harboring endogenous PTPR mutation were compared with cell lines containing WT PTPRs. Cells were plated at equal density (3×10^4/well), treated with various concentration of the STAT3 inhibitors, Stattic (Sigma-Aldrich, MO), a small molecule inhibitor of STAT3 activation and dimerization, or JSI-124 (Calbiochem, MA) for 24 hours, followed by MTT assay (n=3). EC50 values were determined, with extrapolation at 20 μM, by GraphPad Prism 5 software.

[7] = test system: PCI-52-SD1 cells expressing PTPRT(R1059L); experiment: Growth inhibition of PCI-52-SD1 cells expressing PTPRT(R1059L) by JAK/STAT inhibitor; format: cell-based, human; settings: 24 hours of treatment; PTPRT(R1059L) cells vs vector control cells, n=4
Text: FIG. 6. Mutation of PTPRT(R1059L) leads to increased sensitivity to STAT3 inhibition in PCI-52-SD1 cells. PCI-52-SD1 cells were infected with retrovirus expressing the PTPRT(R1059L) mutant gene or PTPRT wildtype (WT) versus vector control (pMXs-EGFP vector).
Overall, our models can be used to determine if the mutation detected in a human tumor is important for tumor growth and facilitate selection of the appropriate therapeutic agents.

Structure (SMILES): Cc1cc(Nc2nc(N[C@@H](C)c3ncc(F)cn3)ncc2Cl)n[nH]1 [AZD1480, 5-chloro-N2-[(1S)-1-(5-fluoropyrimidin-2-yl)ethyl]-N4-(5-methyl-1H-pyrazol-3-yl)pyrimidine-2,4-diamine]
- antitumor effects (tumorgraft growth) ([1]; heterotopic HNSCC patient tumorgrafts in mice, AZD1480 30 mg/kg twice daily by oral gavage): demonstrated antitumor effects
- expression of pSTAT3 and STAT3 target genes in tumors ([1]; heterotopic xenografts from 2 HNSCC human tumors, end of treatment): decreased expression of pSTAT3 and STAT3 target genes
- IC50 (WT JAK2): < 3 nM
- pSTAT3 expression [2]: reduced pSTAT3 expression in a dose- and time-dependent manner
- survival ([3]; AZD1480 5 μm, MTT): decreased survival
- STAT3 promoter activity [3]: decreased survival and STAT3 promoter activity
- EC50 (9 HNSC cell lines): 990 to 3800 nM

Structure (SMILES): Cn1c(=O)n(-c2ccc(C(C)(C)C#N)cc2)c2c3cc(-c4cnc5ccccc5c4)ccc3ncc21 [BEZ-235]
- sensitivity to growth inhibition [4]: more sensitive to growth inhibition
- sensitivity to BEZ-235 treatment (growth) [5]: more sensitive to BEZ-235 treatment than vector control transfected cells

Structure (SMILES): CC(C)(O)/C=C/C(=O)[C@](C)(O)[C@H]1[C@H](O)C[C@@]2(C)[C@@H]3CC=C4[C@@H](C=C(O)C(=O)C4(C)C)[C@]3(C)C(=O)C[C@]12C [JSI-124]
- sensitivity to growth inhibitory effects of STAT3 pathway inhibitors [6]: more sensitive to STAT3 pathways inhibitors
- sensitivity to growth inhibition [7]: more sensitive to growth inhibition

Structure (SMILES): O=[N+]([O-])c1ccc2c(c1)S(=O)(=O)C=C2 [Stattic]
- sensitivity to growth inhibitory effects of STAT3 pathway inhibitors [6]: more sensitive to the growth inhibitory effects
